Test results: patent US20230234942A1, “COMPOUNDS FOR TREATING HUNTINGTON'S DISEASE” (PTC Therapeutics, Inc., priority 2020, published 2023)

System: Endogenous Huntingtin Protein
Assay: Endogenous Huntingtin Protein Assay (ELISA-based MSD electrochemiluminescence)
Type: cell-based
Experimental: Compounds of Formula (I) were tested using the Meso Scale Discovery (MSD) Assay provided in International Application No. PCT/US2016/066042, filed on Dec. 11, 2016 and claiming priority to U.S. Provisional Application 62/265,652 filed on Dec. 10, 2015, the entire contents of which are incorporated herein by reference.
The Endogenous Huntingtin Protein assay used in Biological Example 1 was developed using the ELISA-based MSD electrochemiluminescence assay platform.
Meso Scale Discovery (MSD) 96-well or 384-well plates were coated overnight at 4° C. with MW1 (expanded polyglutamine) or MAB2166 monoclonal antibody (for capture) at a concentration of 1 μg/mL in PBS (30 μL per well). Plates were then washed three times with 300 μL wash buffer (0.05% Tween-20 in PBS) and blocked (100 μL blocking buffer; 5% BSA in PBS) for 4-5 hours at room temperature with rotational shaking and then washed three times with wash buffer.
Samples (25 μL) were transferred to the antibody-coated MSD plate and incubated overnight at 4° C. After removal of the lysates, the plate was washed three times with wash buffer, and 25 μL of #56565 (Cell signaling; rabbit monoclonal) secondary antibody (diluted to 0.25 μg/mL in 0.05% Tween-20 in blocking buffer) was added to each well and incubated with shaking for 1 Hour at room temperature. Following incubation with the secondary antibody, the wells were rinsed with wash buffer after which 25 μL of goat anti-rabbit SULFO TAG secondary detection antibody (required aspect of the MSD system) (diluted to 0.25 μg/mL in 0.05% Tween-20 in blocking buffer) was added to each well and incubated with shaking for 1 hour at room temperature. After rinsing three times with wash buffer, 150 μL of read buffer T with surfactant (MSD) were added to each empty well, and the plate was imaged on a SI 6000 imager (MSD) according to manufacturers' instructions provided for 96- or 384-well plates.

[1] = Table 2, MSD plates coated with MW1 (expanded polyglutamine) or MAB2166 capture antibody, "inactive" = result above the detection limit of the assay

Row | Compound | IC50 [1] | other results
1 | CC1([C@H]2CN(c3ncc(-c4ccc(-c5cnn6c5CCC6)cc4O)nn3)CCN2)CC1 [Cpd 280, 5-(5,6-dihydro-4H-pyrrolo[1,2-b]pyrazol-3-yl)-2-{3-[(3S)-3-(1-methylcyclopropyl)piperazin-1-yl]-1,2,4-triazin-6-yl}phenol] | 4.5 nM | –
2 | Oc1cc(-c2ncns2)ccc1-c1cnc(N2CCN[C@@H](C3CC3)C2)nn1 [Cpd 170, 2-{3-[(3S)-3-cyclopropylpiperazin-1-yl]-1,2,4-triazin-6-yl}-5-(1,2,4-thiadiazol-5-yl)phenol] | 21.5 nM | –
3 | C[C@@H]1CN(c2ncc(-c3ccc(-c4c[nH]nc4F)cc3O)nn2)C[C@H](C2CCC2)N1 [Cpd 236, 2-{3-[(3S,5R)-3-cyclobutyl-5-methylpiperazin-1-yl]-1,2,4-triazin-6-yl}-5-(3-fluoro-1H-pyrazol-4-yl)phenol] | 9.5 nM | –
4 | Oc1cc(-c2cn[nH]c2)ccc1-c1cnc(N2CCNC(CC(F)(F)F)C2)nn1 (stereo not shown) [Cpd 146, 5-(1H-pyrazol-4-yl)-2-{3-[3-(2,2,2-trifluoroethyl)piperazin-1-yl]-1,2,4-triazin-6-yl}phenol] | 539 nM | –
5 | COc1cc(-c2ccc(-c3cnc(N4C[C@@H](C)N[C@@H](C5CC5)C4)nn3)c(O)c2)nc(OC)n1 [Cpd 219, 2-{3-[(3S,5R)-3-cyclopropyl-5-methylpiperazin-1-yl]-1,2,4-triazin-6-yl}-5-(2,6-dimethoxypyrimidin-4-yl)phenol] | 13.7 nM | –
6 | CC(C)[C@H]1CN(c2ncc(-c3ncc(-n4nccn4)cc3O)nn2)CCN1 [Cpd 175, 2-{3-[(3S)-3-(propan-2-yl)piperazin-1-yl]-1,2,4-triazin-6-yl}-5-(2H-1,2,3-triazol-2-yl)pyridin-3-ol] | 236 nM | –
7 | [2H]C([2H])([2H])Oc1cc(-c2ccc(-c3cnc(N4CCN[C@@H](C(C)(C)C)C4)nn3)c(O)c2)ncn1 [Cpd 17, 2-{3-[(3S)-3-tert-butylpiperazin-1-yl]-1,2,4-triazin-6-yl}-5-{6-[(^2H3)methyloxy]pyrimidin-4-yl}phenol] | 14.1 nM | –
8 | CC(C)[C@H]1CN(c2ncc(-c3ccc(-c4cnn5cccnc45)cc3O)nn2)CCN1 [Cpd 243, 2-{3-[(3S)-3-(propan-2-yl)piperazin-1-yl]-1,2,4-triazin-6-yl}-5-(pyrazolo[1,5-a]pyrimidin-3-yl)phenol] | 218 nM | –
9 | CC(C)[C@H]1CN(c2ncc(-c3ccc(-c4cnccn4)cc3O)nn2)CCN1 [Cpd 144, 2-{3-[(3S)-3-(propan-2-yl)piperazin-1-yl]-1,2,4-triazin-6-yl}-5-(pyrazin-2-yl)phenol] | 466 nM | –
10 | Cc1cn2cc(-c3ccc(-c4cnc(N5CCN(C)[C@H](C)C5)nn4)c(O)c3)cc(F)c2n1 [Cpd 107, 2-{3-[(3R)-3,4-dimethylpiperazin-1-yl]-1,2,4-triazin-6-yl}-5-(8-fluoro-2-methylimidazo[1,2-a]pyridin-6-yl)phenol] | 16.8 nM | –
11 | Cc1cn2nc(-c3ccc(-c4cnc(N5C[C@@H](C)N(C)[C@@H](C)C5)nn4)c(O)c3)cc(C#N)c2n1 [Cpd 108, 6-(3-hydroxy-4-{3-[(3R,5S)-3,4,5-trimethylpiperazin-1-yl]-1,2,4-triazin-6-yl]phenyl)-2-methylimidazo[1,2-b]pyridazine-8-carbonitrile] | 19.8 nM | –
12 | Cc1cn2cc(-c3ccc(-c4cnc(N5C[C@@H](C)N(C)[C@@H](C)C5)nn4)c(O)c3)cc(F)c2n1 [Cpd 94, 5-(8-fluoro-2-methylimidazo[1,2-a]pyridin-6-yl)-2-{3-[(3R,5S)-3,4,5-trimethylpiperazin-1-yl]-1,2,4-triazin-6-yl}phenol] | 8.3 nM | –
13 | Cc1cn2nc(-c3ccc(-c4cnc(N5C[C@@H](C)N(C)[C@@H](C)C5)nn4)c(O)c3)cc(C)c2n1 [Cpd 111, 5-(2,8-dimethylimidazo[1,2-b]pyridazin-6-yl)-2-{3-[(3R,5S)-3,4,5-trimethylpiperazin-1-yl]-1,2,4-triazin-6-yl}phenol] | 27.5 nM | –
14 | Cc1nc2cnc(-c3ccc(-c4cnc(N5CCN[C@@H](C(C)C)C5)nn4)c(O)c3)cn2n1 [Cpd 91, 5-(2-methyl[1,2,4]triazolo[1,5-a]pyrazin-6-yl)-2-{3-[(3S)-3-(propan-2-yl)piperazin-1-yl]-1,2,4-triazin-6-yl}phenol] | 7.3 nM | –
15 | C[C@@H]1CN(c2ncc(-c3ccc(-c4ccn(C)n4)cc3O)nn2)C[C@H](C2CCC2)N1 [Cpd 240, 2-{3-[(3S,5R)-3-cyclobutyl-5-methylpiperazin-1-yl]-1,2,4-triazin-6-yl}-5-(1-methyl-1H-pyrazol-3-yl)phenol] | 171 nM | –
16 | Oc1cc(-c2cn[nH]c2)ccc1-c1cnc(N2CC3CCC(C2)N3)nn1 [Cpd 135, 2-[3-(3,8-diazabicyclo[3.2.1]octan-3-yl)-1,2,4-triazin-6-yl]-5-(1H-pyrazol-4-yl)phenol] | 185 nM | –

Row | Compound | IC50 [1] | other results
17 | Cc1ccc2oc(-c3ccc(-c4cnc(N5C[C@@H](C)N[C@@H](C)C5)nn4)c(O)c3)cc2n1 [Cpd 120, 2-{3-[(3R,5S)-3,5-dimethylpiperazin-1-yl]-1,2,4-triazin-6-yl}-5-(5-methylfuro[3,2-b]pyridin-2-yl)phenol] | – | IC50 (nM) [1]: inactive
18 | CC(C)[C@H]1CN(c2ncc(-c3ccc(-c4cn[nH]c4F)cc3O)nn2)C[C@@H](C)N1 [Cpd 222, 5-(5-fluoro-1H-pyrazol-4-yl)-2-{3-[(3R,5S)-3-methyl-5-(propan-2-yl)piperazin-1-yl]-1,2,4-triazin-6-yl]phenol] | 9.4 nM | –
19 | CN1CCN(c2ncc(-c3ccc(-c4cn[nH]c4)cc3O)nn2)CC1C1CC1 (stereo not shown) [Cpd 27, 2-[3-(3-cyclopropyl-4-methylpiperazin-1-yl)-1,2,4-triazin-6-yl]-5-(1H-pyrazol-4-yl)phenol] | 25.1 nM | –
20 | CC(C)C1CN(c2ncc(-c3ccc(-c4cnn(C)c4)cc3O)nn2)CCN1 (stereo not shown) [Cpd 35, 5-(1-methyl-1H-pyrazol-4-yl)-2-{3-[3-(propan-2-yl)piperazin-1-yl]-1,2,4-triazin-6-yl}phenol] | 46.1 nM | –
21 | C[C@@H]1CN[C@@H](C)CN1c1ncc(-c2ccc(-c3cn[nH]c3)cc2O)nn1 (single isomer, unassigned) [Cpd 190, 2-{3-[(2R,5S)-2,5-dimethylpiperazin-1-yl]-1,2,4-triazin-6-yl}-5-(1H-pyrazol-4-yl)phenol or 2-{3-[(2S,5R)-2,5-dimethylpiperazin-1-yl]-1,2,4-triazin-6-yl}-5-(1H-pyrazol-4-yl)phenol] | 166 nM | –
22 | Oc1cc(-c2cn[nH]c2)ccc1-c1cnc(N2CCN3CCCCC3C2)nn1 (stereo not shown) [Cpd 203, 2-[3-(octahydro-2H-pyrido[1,2-a]pyrazin-2-yl)-1,2,4-triazin-6-yl]-5-(1H-pyrazol-4-yl)phenol] | 42.5 nM | –
23 | Cc1nc2c(C)nc(-c3ccc(-c4cnc(N5CCN[C@@H](C(C)C)C5)nn4)c(O)c3)cn2n1 [Cpd 78, 5-(2,8-dimethyl[1,2,4]triazolo[1,5-a]pyrazin-6-yl)-2-{3-[(3S)-3-(propan-2-yl)piperazin-1-yl]-1,2,4-triazin-6-yl}phenol] | 5.1 nM | –
24 | CN1CCN(c2ncc(-c3ncc(-c4cn[nH]c4)cc3O)nn2)CC1 [Cpd 124, 2-[3-(4-methylpiperazin-1-yl)-1,2,4-triazin-6-yl]-5-(1H-pyrazol-4-yl)pyridin-3-ol] | 609 nM | –
25 | CC(C)[C@H]1CN(c2ncc(-c3ccc(-c4ncn(C)n4)cc3O)nn2)CCN1 [Cpd 259, 5-(1-methyl-1H-1,2,4-triazol-3-yl)-2-{3-[(3S)-3-(propan-2-yl)piperazin-1-yl]-1,2,4-triazin-6-yl}phenol] | 338 nM | –
26 | Cc1ccc(-c2ccc(-c3cnc(N4CCN[C@@H](C(C)C)C4)nn3)c(O)c2)cn1 [Cpd 160, 5-(6-methylpyridin-3-yl)-2-{3-[(3S)-3-(propan-2-yl)piperazin-1-yl]-1,2,4-triazin-6-yl]phenol] | 789 nM | –
27 | CC(C)(C)[C@H]1CN(c2ncc(-c3ccc(-c4cn5ncnc5cn4)cc3O)nn2)CCN1 [Cpd 129, 2-{3-[(3S)-3-tert-butylpiperazin-1-yl]-1,2,4-triazin-6-yl}-5-([1,2,4]triazolo[1,5-a]pyrazin-6-yl)phenol] | 18.6 nM | –
28 | C[C@@H]1CN(c2ncc(-c3ccc(-c4cc(F)c5nn(C)cc5c4)cc3O)nn2)C[C@@H](C)N1 [Cpd 76, 2-{3-[(3R,5R)-3,5-dimethylpiperazin-1-yl]-1,2,4-triazin-6-yl}-5-(7-fluoro-2-methyl-2H-indazol-5-yl)phenol] | 4.3 nM | –
29 | COc1cc(-c2ccc(-c3cnc(N4C[C@@H](C(C)C)N[C@@H](C)C4)nn3)c(O)c2)ncn1 [Cpd 227, 5-(6-methoxypyrimidin-4-yl)-2-{3-[(3S,5R)-3-methyl-5-(propan-2-yl)piperazin-1-yl]-1,2,4-triazin-6-yl}phenol] | 37.3 nM | –
30 | CC(C)[C@H]1CN(c2ncc(-c3ccc(-c4nc(Cl)cs4)cc3O)nn2)CCN1 [Cpd 188, 5-(4-chloro-1,3-thiazol-2-yl)-2-{3-[(3S)-3-(propan-2-yl)piperazin-1-yl]-1,2,4-triazin-6-yl}phenol] | 105 nM | –
31 | CC1CN(c2ncc(-c3ccc(-c4cnn(C)c4)cc3O)nn2)CC(C)N1 (stereo not shown) [WO/2019/191229 A1 Cpd 263, reference compound] | – | IC50 (Table 3, selected compounds from WO/2019/191229 A1, same MSD assay): 352 nM
